In one experiment the test system is TGF-β protein. The experiment in a line: TGF-β protein expression in NHLF, western blotting (3-1). The format is cell-based, human. As for the experimental part:
Normal Human lung fibroblasts (NHLF) were seeded into 6 cm culture dishes at a density of 2×10^5 cells/dish, comprising a control group and six experimental groups (7 dishes in total). The cells were cultured until the next day, and then the mediums were removed. Each group was respectively treated under the following conditions to conduct follow-up experiments: • (1) Control group: cells were cultured in a FGM-2 medium containing 10% serum for 36 hours; • (2) Group i: cells were cultured in a FGM-2 medium containing 1% serum for 36 hours; • (3) Group ii: cells were firstly cultured in a FGM-2 medium containing 1% serum for 12 hours, and then compound (1) was added into the medium to provide a final concentration of 15 μg/ml; thereafter, the cells were cultured for another 24 hours; • (4) Group iii: cells were firstly cultured in a FGM-2 medium containing 1% serum for 12 hours, and then compound (1) was added into the medium to provide a final concentration of 25 μg/ml; thereafter, the cells were cultured for another 24 hours; • (5) Group iv: cells were cultured in a FGM-2 medium containing 1% serum and TGF-β1 (5 ng/ml) for 36 hours; • (6) Group v: cells were firstly cultured in a FGM-2 medium containing 1% serum and TGF-β1 (5 ng/ml) for 12 hours, and then compound (1) was added into the medium to provide a final concentration of 15 μg/ml; thereafter, the cells were cultured for another 24 hours; and • (7) Group vi: cells were firstly cultured in a FGM-2 medium containing 1% serum and TGF-β1 (5 ng/ml) for 12 hours, and then compound (1) was added into the medium to provide a final concentration of 25 μg/ml; thereafter, the cells were cultured for another 24 hours.
Thereafter, the proteins in the cells of each group were extracted, and the expressions of BMP-7 protein, TGF-β protein and α-SMA protein in the NHLF cells of each group were measured with western blotting, wherein the β-actin served as the internal control. The results of the control group served as the basis for calculating the relative expression levels of the other groups.

The next experiment concerns Sox2 protein. The experiment in a line: Sox2 protein expression in transfected NHLF (pcDNA3.1 empty vector or pcDNA3.1-SOX2), western blotting (2-3). The format is cell-based, human. As to conditions: TGF-β1 5 ng/ml 12 h. The protocol:
The pcDNA3.1 empty vector and the pcDNA3.1-SOX2 plasmid (i.e., pcDNA3.1 vector containing SOX2 gene) were respectively transfected into Normal Human lung fibroblasts (NHLF) by the Fugene HD cell transfection reagent. The cells were screened to obtain NHLFs containing the pcDNA3.1 empty vector or the pcDNA3.1-SOX2 plasmid.
NHLFs containing the pcDNA3.1 empty vector were then seeded into 6 cm culture dishes at a density of 2×10^5 cells/dish, comprising a control group and three experimental groups (4 dishes in total). The cells were cultured until the next day, and then the mediums were removed. Each group was respectively treated under the following conditions to conduct follow-up experiments: • (1) Control group I: cells were cultured in a FGM-2 medium containing 1% serum for 36 hours; • (2) Group A: cells were cultured in a FGM-2 medium containing 1% serum and TGF-β1 (5 ng/ml) for 36 hours; • (3) Group B: cells were firstly cultured in a FGM-2 medium containing 1% serum and TGF-β1 (5 ng/ml) for 12 hours, and then compound (1) was added into the medium to provide a final concentration of 15 μg/ml; thereafter, the cells were cultured for another 24 hours; and • (4) Group C: cells were firstly cultured in a FGM-2 medium containing 1% serum and TGF-β1 (5 ng/ml) for 12 hours, and then compound (1) was added into the medium to provide a final concentration of 30 μg/ml; thereafter, the cells were cultured for another 24 hours.
In another aspect, NHLFs containing the pcDNA3.1-SOX2 plasmid were seeded into the 6 cm culture dishes at a density of 2×10^5 cells/dish, comprising a control group and three experimental groups (4 dishes in total). The cells were cultured until the next day, and then the mediums were removed. Each group was respectively treated under the following conditions to conduct follow-up experiments: • (1) Control group II: cells were cultured in a FGM-2 medium containing 1% serum for 36 hours; • (2) Group D: cells were cultured in a FGM-2 medium containing 1% serum and TGF-β1 (5 ng/ml) for 36 hours; • (3) Group E: cells were firstly cultured in a FGM-2 medium containing 1% serum and TGF-β1 (5 ng/ml) for 12 hours, and then the compound (1) was added into the medium to provide a final concentration of 15 μg/ml; thereafter, the cells were cultured for another 24 hours; and • (4) Group F: cells were firstly cultured in a FGM-2 medium containing 1% serum and TGF-β1 (5 ng/ml) for 12 hours, and then the compound (1) was added into the medium to provide a final concentration of 30 μg/ml; thereafter, the cells were cultured for another 24 hours.
Thereafter, the proteins in the cells of each group were extracted, and the expressions of Sox2 protein, TGF-β protein and type I collagen in the NHLF cells of each group were measured with western blotting. […]
For orientation: A western blot detects proteins with antibodies after separation by electrophoresis.

Each structure is given as a SMILES string.

With `CCCC=C1OC(=O)c2ccccc21` [compound (1)], the “Relative expression level (fold) TGF-β protein” value was determined as 0.63 fold in the experiment on TGF-β protein (Group ii: 1% serum 12 h, then compound (1) 15 μg/ml 24 h, no TGF-β1, 10% serum control = 1, 1% serum group i = 0.66); 0.52 fold in the experiment with TGF-β protein (Group iii: 1% serum 12 h, then compound (1) 25 μg/ml 24 h, no TGF-β1, 10% serum control = 1, 1% serum group i = 0.66); 0.79 fold with TGF-β protein (Group v: 1% serum + TGF-β1 5 ng/ml 12 h, then compound (1) 15 μg/ml 24 h, 10% serum control = 1, TGF-β1-only group iv = 0.80); 0.59 fold in the experiment with TGF-β protein (Group vi: 1% serum + TGF-β1 5 ng/ml 12 h, then compound (1) 25 μg/ml 24 h, 10% serum control = 1, TGF-β1-only group iv = 0.80). Besides, the “Relative expression level (fold) Sox2 protein” value is 1.81 fold in the experiment on Sox2 protein (Group B: NHLF with pcDNA3.1 empty vector, then compound (1) 15 μg/ml 24 h, control group I = 1, TGF-β1-only group A = 1.55); 1.04 fold in the experiment on Sox2 protein (Group C: NHLF with pcDNA3.1 empty vector, then compound (1) 30 μg/ml 24 h, control group I = 1, TGF-β1-only group A = 1.55); 1.03 fold with Sox2 protein (Group E: NHLF with pcDNA3.1-SOX2 plasmid, then compound (1) 15 μg/ml 24 h, control group II = 1, TGF-β1-only group D = 0.88); 1.02 fold in the experiment on Sox2 protein (Group F: NHLF with pcDNA3.1-SOX2 plasmid, then compound (1) 30 μg/ml 24 h, control group II = 1, TGF-β1-only group D = 0.88).
